Source: ChEMBL document CHEMBL1201862, “PubChem BioAssay data set” (2004)
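Five compound concentrations were applied to cells in 96-well plates for 48 hours; endpoints were derived by simple linear interpolation of the resulting dose-response curve. Abbreviation: GI50, concentration required for 50% inhibition of growth.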 Activity calls are given as the source filed them. Cut-off read from the data, not from the text of the source: active = GI50 up to about 1.1 µM and inactive = higher.

How the values were obtained:
Test in all cases: NCI tumour cell line growth inhibition, 48 h
[1] = system: TK-10
[2] = system: CCRF-CEM
[3] = system: OVCAR-3
[4] = system: A549
[5] = system: HCC 2998
[6] = system: NCI/ADR-RES
[7] = system: MDA-MB-231
[8] = system: HL-60
[9] = system: OVCAR-5
[10] = system: MDA-N
[11] = system: DU-145
[12] = system: SK-MEL-5
[13] = system: SNB-19
[14] = system: RPMI-8226
[15] = system: UO-31
[16] = system: MOLT-4
[17] = system: UACC-62
[18] = system: SF-295
[19] = system: HT-29
[20] = system: CAKI-1
[21] = system: U-251
[22] = system: NCI-H460
[23] = system: SW-620
[24] = system: K562
[25] = system: PC-3
[26] = system: MCF7
[27] = system: ACHN
[28] = system: Malme-3M
[29] = system: 786-0
[30] = system: HOP-92
[31] = system: HCT-15
[32] = system: NCI-H226
[33] = system: KM12
[34] = system: M14
[35] = system: LOX IMVI
[36] = system: SNB-75
[37] = system: SR
[38] = system: UACC-257
[39] = system: SK-MEL-28
[40] = system: SF-268
[41] = system: HCT-116
[42] = system: A498
[43] = system: RXF 393
[44] = system: COLO 205
[45] = system: BT-549
[46] = system: IGROV-1
[47] = system: Hs-578T
[48] = system: EKVX
[49] = system: HOP-62
[50] = system: MDA-MB-435
[51] = system: SK-OV-3
[52] = system: NCI-H23
[53] = system: SF-539
[54] = system: NCI-H522
[55] = system: OVCAR-8
[56] = system: SK-MEL-2
[57] = system: SN12C
[58] = system: OVCAR-4
[59] = system: T47D

Cc1c(N=C(S)Nc2ccc(Cl)cc2)c(=O)n(-c2ccccc2)n1C
GI50 [1]: > 100 µM (inactive) | GI50 [2]: > 100 µM (inactive) | GI50 [3]: > 100 µM (inactive) | GI50 [4]: > 100 µM (inactive) | GI50 [5]: > 100 µM (inactive) | GI50 [6]: > 100 µM (inactive) | GI50 [7]: > 100 µM (inactive) | GI50 [8]: > 100 µM (inactive) | GI50 [9]: > 100 µM (inactive) | GI50 [10]: > 100 µM (inactive) | GI50 [11]: > 100 µM (inactive) | GI50 [12]: > 100 µM (inactive) | GI50 [13]: > 100 µM (inactive) | GI50 [14]: > 100 µM (inactive) | GI50 [15]: > 100 µM (inactive) | GI50 [16]: > 100 µM (inactive) | GI50 [17]: > 100 µM (inactive) | GI50 [18]: > 100 µM (inactive) | GI50 [19]: > 100 µM (inactive) | GI50 [20]: > 100 µM (inactive) | GI50 [21]: > 100 µM (inactive) | GI50 [22]: > 100 µM (inactive) | GI50 [23]: > 100 µM (inactive) | GI50 [24]: > 100 µM (inactive) | GI50 [25]: > 100 µM (inactive) | GI50 [26]: > 100 µM (inactive) | GI50 [27]: > 100 µM (inactive) | GI50 [28]: > 100 µM (inactive) | GI50 [29]: > 100 µM (inactive) | GI50 [30]: > 100 µM (inactive) | GI50 [31]: > 100 µM | GI50 [32]: > 100 µM (inactive) | GI50 [33]: > 100 µM (inactive) | GI50 [34]: > 100 µM (inactive) | GI50 [35]: > 100 µM (inactive) | GI50 [36]: > 100 µM (inactive) | GI50 [37]: > 100 µM (inactive) | GI50 [38]: > 100 µM (inactive) | GI50 [39]: > 100 µM (inactive) | GI50 [40]: > 100 µM (inactive) | GI50 [41]: > 100 µM (inactive) | GI50 [42]: > 100 µM (inactive) | GI50 [43]: > 100 µM (inactive) | GI50 [44]: > 100 µM (inactive) | GI50 [45]: > 100 µM (inactive) | GI50 [46]: > 100 µM (inactive) | GI50 [47]: > 100 µM (inactive) | GI50 [48]: > 100 µM (inactive) | GI50 [49]: > 100 µM (inactive) | GI50 [50]: > 100 µM (inactive) | GI50 [51]: > 100 µM (inactive) | GI50 [52]: > 100 µM (inactive) | GI50 [53]: > 100 µM (inactive) | GI50 [54]: > 100 µM (inactive)

O=C(CCCN1CCC(Nc2ccc(F)cc2)(c2nnnn2C2CCCCC2)CC1)c1ccc(F)cc1
GI50 [55]: 23.6 µM (inactive) | GI50 [1]: 15.3 µM (inactive) | GI50 [2]: 7.1 µM (inactive) | GI50 [3]: 14.8 µM (inactive) | GI50 [4]: 13.1 µM (inactive) | GI50 [5]: 16.3 µM (inactive) | GI50 [6]: 16.3 µM (inactive) | GI50 [7]: 16.6 µM (inactive) | GI50 [8]: 6.52 µM (inactive) | GI50 [56]: 16.3 µM (inactive) | GI50 [9]: 15.7 µM (inactive) | GI50 [10]: 15.5 µM (inactive) | GI50 [11]: 14.5 µM (inactive) | GI50 [12]: 20.7 µM (inactive) | GI50 [13]: 15.6 µM (inactive) | GI50 [14]: 5.42 µM (inactive) | GI50 [15]: 14.1 µM (inactive) | GI50 [16]: 5.27 µM (inactive) | GI50 [17]: 3.3 µM (inactive) | GI50 [18]: 18.3 µM (inactive) | GI50 [19]: 8.57 µM (inactive) | GI50 [21]: 15.3 µM (inactive) | GI50 [22]: 11.6 µM (inactive) | GI50 [23]: 22.5 µM (inactive) | GI50 [24]: 3.98 µM (inactive) | GI50 [25]: 13.1 µM (inactive) | GI50 [26]: 17.8 µM (inactive) | GI50 [27]: 10.6 µM (inactive) | GI50 [57]: 31.5 µM (inactive) | GI50 [28]: 29.2 µM (inactive) | GI50 [29]: 17.8 µM (inactive) | GI50 [31]: 15.2 µM | GI50 [32]: 17.2 µM (inactive) | GI50 [33]: 3.52 µM (inactive) | GI50 [34]: 16.7 µM (inactive) | GI50 [35]: 19.4 µM (inactive) | GI50 [36]: 11.2 µM (inactive) | GI50 [37]: 11.7 µM (inactive) | GI50 [38]: 21.3 µM (inactive) | GI50 [39]: 16.2 µM (inactive) | GI50 [40]: 12.8 µM (inactive) | GI50 [41]: 13.2 µM (inactive) | GI50 [42]: 3.79 µM (inactive) | GI50 [43]: 12.6 µM (inactive) | GI50 [44]: 14.3 µM (inactive) | GI50 [58]: 12.9 µM (inactive) | GI50 [45]: 16.5 µM (inactive) | GI50 [46]: 3.69 µM (inactive) | GI50 [47]: 18.5 µM (inactive) | GI50 [48]: 15.9 µM (inactive) | GI50 [49]: 16.9 µM (inactive) | GI50 [50]: 16.7 µM (inactive) | GI50 [51]: 3.39 µM (inactive) | GI50 [52]: 14.5 µM (inactive) | GI50 [53]: 12.6 µM (inactive) | GI50 [54]: 16.3 µM (inactive)

CCc1ccc2oc(=O)ccc2c1
GI50 [55]: > 100 µM (inactive) | GI50 [2]: > 100 µM (inactive) | GI50 [3]: > 100 µM (inactive) | GI50 [4]: > 100 µM (inactive) | GI50 [5]: > 100 µM (inactive) | GI50 [6]: > 100 µM (inactive) | GI50 [7]: > 10 µM (inactive) | GI50 [8]: 42.5 µM (inactive) | GI50 [56]: > 100 µM (inactive) | GI50 [9]: > 100 µM (inactive) | GI50 [10]: > 100 µM (inactive) | GI50 [11]: > 10 µM (inactive) | GI50 [12]: > 100 µM (inactive) | GI50 [13]: > 100 µM (inactive) | GI50 [14]: 91 µM (inactive) | GI50 [15]: 31.4 µM (inactive) | GI50 [16]: > 100 µM (inactive) | GI50 [17]: 35.7 µM (inactive) | GI50 [18]: > 100 µM (inactive) | GI50 [19]: > 100 µM (inactive) | GI50 [20]: > 100 µM (inactive) | GI50 [21]: > 100 µM (inactive) | GI50 [22]: > 100 µM (inactive) | GI50 [23]: > 100 µM (inactive) | GI50 [24]: > 100 µM (inactive) | GI50 [25]: > 100 µM (inactive) | GI50 [26]: > 100 µM (inactive) | GI50 [27]: > 100 µM (inactive) | GI50 [57]: > 100 µM (inactive) | GI50 [28]: > 100 µM (inactive) | GI50 [29]: > 100 µM (inactive) | GI50 [30]: > 100 µM (inactive) | GI50 [31]: > 100 µM | GI50 [32]: > 100 µM (inactive) | GI50 [33]: > 100 µM (inactive) | GI50 [34]: > 100 µM (inactive) | GI50 [35]: > 100 µM (inactive) | GI50 [36]: > 100 µM (inactive) | GI50 [37]: > 100 µM (inactive) | GI50 [38]: > 100 µM (inactive) | GI50 [39]: > 100 µM (inactive) | GI50 [40]: > 100 µM (inactive) | GI50 [41]: > 100 µM (inactive) | GI50 [42]: > 100 µM (inactive) | GI50 [43]: > 100 µM (inactive) | GI50 [44]: > 100 µM (inactive) | GI50 [58]: > 100 µM (inactive) | GI50 [45]: > 100 µM (inactive) | GI50 [46]: > 100 µM (inactive) | GI50 [47]: > 100 µM (inactive) | GI50 [48]: 32.2 µM (inactive) | GI50 [49]: > 100 µM (inactive) | GI50 [50]: > 100 µM (inactive) | GI50 [52]: > 100 µM (inactive) | GI50 [53]: > 100 µM (inactive) | GI50 [54]: > 100 µM (inactive)

CCN(CC)C(=S)SS(=O)(=O)c1ccc([N+](=O)[O-])cc1
GI50 [55]: 20.4 µM (inactive) | GI50 [4]: 1.18 µM (inactive) | GI50 [56]: 48.3 µM (inactive) | GI50 [9]: > 100 µM (inactive) | GI50 [12]: 2.77 µM (inactive) | GI50 [13]: 76.7 µM (inactive) | GI50 [14]: 12.8 µM (inactive) | GI50 [15]: 21.7 µM (inactive) | GI50 [17]: 27.4 µM (inactive) | GI50 [20]: 18.8 µM (inactive) | GI50 [21]: 14.5 µM (inactive) | GI50 [22]: 96.2 µM (inactive) | GI50 [24]: 19.4 µM (inactive) | GI50 [28]: 14.9 µM (inactive) | GI50 [29]: 16.7 µM (inactive) | GI50 [59]: 43.2 µM (inactive) | GI50 [35]: 17.5 µM (inactive) | GI50 [37]: 0.148 µM (active) | GI50 [42]: > 100 µM (inactive) | GI50 [44]: 19.9 µM (inactive) | GI50 [45]: 36.8 µM (inactive) | GI50 [48]: > 100 µM (inactive) | GI50 [51]: > 100 µM (inactive) | GI50 [52]: 56.8 µM (inactive) | GI50 [53]: 21.2 µM (inactive) | GI50 [54]: 0.0282 µM (active)
